Assay [1] concerns TNF-α in human PBMCs. Kind of assay: R848-induced TNF-α in human PBMCs Assay. It is filed as cell-based. To be noted: Homo sapiens, PBMC, 4 h, read-out: TNFα (PBMC, R848) (IC50, μM). The essentials:
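Human PBMCs at 200K/well were pretreated with compound, then R848-stimulated for 4 h at 37 °C, 5% CO2. Supernatant TNF-α quantified by chemiluminescent ELISA; EC50 from curve fitting.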

Assay [2] concerns TNF-α in Human Primary Monocyte-Derived Dendritic Cells. Kind of assay: Gardiquimod-Induced TNF-α in Human Primary Monocyte-Derived Dendritic Cells. To be noted: Dendritic cell, IFNγ-primed monocyte-derived dendritic cells, 4 μg/ml Gardiquimod, 6 hours, TNF-α ELISA, read-out: TNFα (DC, GARD) (IC50). It is filed as cell-based. A digest of the protocol: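 Monocytes differentiated 7 days with GM-CSF and IL-4, then primed 24 h with 50 ng/ml IFN-γ. Compound added 1 h before 6 h stimulation with 4 μg/ml Gardiquimod, 0.5% DMSO final. Supernatant TNF-α measured by chemiluminescent ELISA; EC50 from curve fitting.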

Assay [3] concerns the target IRAK4 (Homo sapiens (Human), UniProt Q9NWZ3). As to the kind of experiment: IRAK4 ADP-Glo Assay. The conditions noted are these: MBP substrate. It is filed as biochemical. A digest of the protocol:
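Human IRAK4 kinase reaction with MBP substrate plus ATP in Tris-HCl/MgCl2/BSA/DTT buffer, pH 7.4, run 60 min at room temperature or 30 min at 30 °C. ADP formed was measured by ADP-Glo luminescence after ATP depletion (40 min) and detection reagent (30 min).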
In general terms: ADP-Glo turns the ADP formed in a reaction into a luminescent signal.

Assay [4] deals with IL23p19 in THP-1 Cells. As to the kind of experiment: LPS Induced IL23p19 in THP-1 Cells (with IFNγ Primed) Assay. It is filed as cell-based. To be noted: Homo sapiens, THP-1, 18 h, read-out: IL23 (THP, LPS) (IC50, μM). A digest of the protocol: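 THP-1 cells (50K/well) primed with IFNγ (50 ng/mL) about 18 h, then given compound and stimulated with LPS for 18 h at 37 °C. Secreted IL-23p19 measured by sandwich ELISA with chemiluminescent read-out, giving EC50. Cell Titer Glo used on the remaining cells for toxicity.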

SMILES strings stand for the structures.

As usually defined, the IC50 is the concentration needed to halve the response being measured.

IRAK4, sequence (Q9NWZ3 whole entry): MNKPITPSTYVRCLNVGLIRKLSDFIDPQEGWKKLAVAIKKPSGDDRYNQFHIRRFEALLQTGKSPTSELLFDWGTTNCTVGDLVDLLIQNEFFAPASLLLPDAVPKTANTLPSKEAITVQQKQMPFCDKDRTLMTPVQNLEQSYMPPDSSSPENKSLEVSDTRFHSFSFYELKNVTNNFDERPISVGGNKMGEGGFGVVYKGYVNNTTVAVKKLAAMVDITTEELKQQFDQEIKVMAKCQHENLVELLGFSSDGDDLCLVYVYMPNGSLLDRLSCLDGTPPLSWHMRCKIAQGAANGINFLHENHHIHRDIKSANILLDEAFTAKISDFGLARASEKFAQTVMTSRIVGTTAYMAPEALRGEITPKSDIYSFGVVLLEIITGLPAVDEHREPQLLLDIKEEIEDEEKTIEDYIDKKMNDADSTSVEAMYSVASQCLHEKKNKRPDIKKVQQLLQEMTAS

As for `CC(C)Oc1cc2c(OC[C@@H]3CC(F)(F)C(=O)N3)ncc(-c3cnn(C4CCC4)c3)c2cc1C(N)=O` [Compound I-68, (S)-4-(1-cyclobutyl-1H-pyrazol-4-yl)-1-((4,4-difluoro-5-oxopyrrolidin-2-yl)methoxy)-7-isopropoxyisoquinoline-6-carboxamide], the IC50 in assay [1] is 0.406 µM; in assay [2], 545 nM; in assay [3], 9.5 nM; in assay [4] it was 0.286 µM.

On to `CC(C)Oc1cc2c(OC[C@@H]3CC(F)(F)C(=O)N3)ncc(-c3cnn(C4CCCC4)c3)c2cc1C(N)=O` [Compound I-69, (S)-4-(1-cyclopentyl-1H-pyrazol-4-yl)-1-((4,4-difluoro-5-oxopyrrolidin-2-yl)methoxy)-7-isopropoxyisoquinoline-6-carboxamide], for which the IC50 was found to be 0.241 µM in assay [1], 52.3 nM in assay [2], 5.1 nM in assay [3] and 0.391 µM in assay [4].

With `CC(C)Oc1cc2c(OC[C@@H]3CC(F)(F)C(=O)N3)ncc(-c3cnn(C4CCOCC4)c3)c2cc1C(N)=O` [Compound I-70, (S)-1-((4,4-difluoro-5-oxopyrrolidin-2-yl)methoxy)-7-isopropoxy-4-(1-(tetrahydro-2H-pyran-4-yl)-1H-pyrazol-4-yl)isoquinoline-6-carboxamide], the IC50 in assay [1] came out at 0.292 µM; in assay [2], 82.7 nM; in assay [3], 6.8 nM; in assay [4] it was 2.26 µM.

On to `CC(C)Oc1cc2c(OC[C@@H]3CC(F)(F)C(=O)N3)ncc(-c3cnn(CC4CCOCC4)c3)c2cc1C(N)=O` [Compound I-71, (S)-1-((4,4-difluoro-5-oxopyrrolidin-2-yl)methoxy)-7-isopropoxy-4-(1-((tetrahydro-2H-pyran-4-yl)methyl)-1H-pyrazol-4-yl)isoquinoline-6-carboxamide], for which the IC50 in assay [1] is 0.174 µM; in assay [2] it was 148 nM; in assay [3] it was 6.4 nM; in assay [4] it was 0.848 µM.

Take `CC(C)Oc1cc2c(OC[C@@H]3CC(F)(F)C(=O)N3)ncc(-c3cnn(CCC4CCOCC4)c3)c2cc1C(N)=O` [Compound I-72, (S)-1-((4,4-difluoro-5-oxopyrrolidin-2-yl)methoxy)-7-isopropoxy-4-(1-(2-(tetrahydro-2H-pyran-4-yl)ethyl)-1H-pyrazol-4-yl)isoquinoline-6-carboxamide]: the IC50 in assay [1] was 0.183 µM; in assay [2], 273 nM; in assay [3], 7 nM; in assay [4], 0.872 µM.

In the case of `CC(C)Oc1cc2c(OC[C@@H]3CC(F)(F)C(=O)N3)ncc(-c3cnn([C@H]4C[C@@H](N(C)C)C4)c3)c2cc1C(N)=O` [Compound I-73, 1-(((S)-4,4-difluoro-5-oxopyrrolidin-2-yl)methoxy)-4-(1-(cis-3-(dimethylamino)cyclobutyl)-1H-pyrazol-4-yl)-7-isopropoxyisoquinoline-6-carboxamide], the IC50 amounted to 0.203 µM in assay [1], 259 nM in assay [2], 3 nM in assay [3] and 1.04 µM in assay [4].

On to `CC(C)Oc1cc2c(OC[C@@H]3CC(F)(F)C(=O)N3)ncc(-c3cnn(C4CCN(C(=O)OC(C)(C)C)CC4)c3)c2cc1C(N)=O` [Compound I-74, tert-butyl (S)-4-(4-(6-carbamoyl-1-((4,4-difluoro-5-oxopyrrolidin-2-yl)methoxy)-7-isopropoxyisoquinolin-4-yl)-1H-pyrazol-1-yl)piperidine-1-carboxylate], for which the IC50 in assay [1] turned out to be 0.141 µM; in assay [2] it was 493 nM; in assay [3], 11.2 nM; in assay [4], 0.395 µM.

In the case of `CC(C)Oc1cc2c(OC[C@@H]3CC(F)(F)C(=O)N3)ncc(-c3cnn(C4CCNCC4)c3)c2cc1C(N)=O` [Compound I-75, (S)-1-((4,4-difluoro-5-oxopyrrolidin-2-yl)methoxy)-7-isopropoxy-4-(1-(piperidin-4-yl)-1H-pyrazol-4-yl)isoquinoline-6-carboxamide], the IC50 in assay [1] stood at 6.64 µM; in assay [2], 4580 nM; in assay [3], 4 nM; in assay [4], 85.4 µM.

For `CC(C)Oc1cc2c(OC[C@@H]3CC(F)(F)C(=O)N3)ncc(-c3cnn(C4CCN(C)CC4)c3)c2cc1C(N)=O` [Compound I-76, (S)-1-((4,4-difluoro-5-oxopyrrolidin-2-yl)methoxy)-7-isopropoxy-4-(1-(1-methylpiperidin-4-yl)-1H-pyrazol-4-yl)isoquinoline-6-carboxamide], the IC50 in assay [1] is 0.375 µM; in assay [2] it was 452 nM; in assay [3], 2.4 nM; in assay [4], 1.11 µM.

Consider `CCO[C@H]1CC[C@H](n2cc(-c3cnc(OC[C@@H]4CC(F)(F)C(=O)N4)c4cc(OC(C)C)c(C(N)=O)cc34)cn2)CC1` [Compound I-77, 1-(((S)-4,4-difluoro-5-oxopyrrolidin-2-yl)methoxy)-4-(1-(trans-4-ethoxycyclohexyl)-1H-pyrazol-4-yl)-7-isopropoxyisoquinoline-6-carboxamide], for which the IC50 worked out at 0.12 µM in assay [1], 349 nM in assay [2], 7 nM in assay [3] and 0.152 µM in assay [4].

In the case of `CC(C)Oc1cc2c(OC[C@@H]3CC(F)(F)C(=O)N3)ncc(-c3cnn([C@H]4CC[C@](C)(O)CC4)c3)c2cc1C(N)=O` [Compound I-78, 1-(((S)-4,4-difluoro-5-oxopyrrolidin-2-yl)methoxy)-4-(1-((1r,4S)-4-hydroxy-4-methylcyclohexyl)-1H-pyrazol-4-yl)-7-isopropoxyisoquinoline-6-carboxamide], the IC50 is 0.234 µM in assay [1], 652 nM in assay [2], 3.6 nM in assay [3] and 0.162 µM in assay [4].

`CC(C)Oc1cc2c(O[C@@H]3CCCNC3)ncc(C#CC3CCOCC3)c2cc1C(N)=O` [Compound I-86, (R)-7-isopropoxy-1-(piperidin-3-yloxy)-4-((tetrahydro-2H-pyran-4-yl)ethynyl)isoquinoline-6-carboxamide]: the IC50 came to 1.74 µM in assay [1], 1030 nM in assay [2], 91.3 nM in assay [3] and 5.29 µM in assay [4].

With `CC(C)Oc1cc2c(O[C@@H]3CCCNC3)ncc(C#CCC3CCOCC3)c2cc1C(N)=O` [Compound I-87, (R)-7-isopropoxy-1-(piperidin-3-yloxy)-4-(3-(tetrahydro-2H-pyran-4-yl)prop-1-yn-1-yl)isoquinoline-6-carboxamide], the IC50 in assay [1] amounted to 1.97 µM; in assay [2], 776 nM; in assay [3] it was 52.2 nM; in assay [4], 5.02 µM.

Take `CC(C)Oc1cc2c(O[C@@H]3CCCN(C(=O)CC#N)C3)ncc(C#CC3(O)CCCC3)c2cc1C(N)=O` [Compound I-88, (R)-1-((1-(2-cyanoacetyl)piperidin-3-yl)oxy)-4-((1-hydroxycyclopentyl)ethynyl)-7-isopropoxyisoquinoline-6-carboxamide]: the IC50 in assay [1] worked out at 0.903 µM; in assay [2], 696 nM; in assay [3] it was 29.7 nM; in assay [4], 2.07 µM.

For `CC(C)Oc1cc2c(O[C@@H]3CCCN(C(=O)CC#N)C3)ncc(C#CC3CCOCC3)c2cc1C(N)=O` [Compound I-89, (R)-1-((1-(2-cyanoacetyl)piperidin-3-yl)oxy)-7-isopropoxy-4-((tetrahydro-2H-pyran-4-yl)ethynyl)isoquinoline-6-carboxamide], the IC50 in assay [1] came out at 0.556 µM; in assay [2], 530 nM; in assay [3], 15.2 nM; in assay [4], 1.71 µM.

As for `CC(C)Oc1cc2c(O[C@@H]3CCCN(C(=O)CC#N)C3)ncc(C#CCC3CCOCC3)c2cc1C(N)=O` [Compound I-90, (R)-1-((1-(2-cyanoacetyl)piperidin-3-yl)oxy)-7-isopropoxy-4-(3-(tetrahydro-2H-pyran-4-yl)prop-1-yn-1-yl)isoquinoline-6-carboxamide], the IC50 in assay [1] worked out at 0.433 µM; in assay [2], 616 nM; in assay [3], 20.5 nM; in assay [4], 1.42 µM.

In the case of `CC(C)Oc1cc2c(O[C@@H]3CCCN(C(=O)CC#N)C3)ncc(C#CC3(O)CCOCC3)c2cc1C(N)=O` [Compound I-91, (R)-1-((1-(2-cyanoacetyl)piperidin-3-yl)oxy)-4-((4-hydroxytetrahydro-2H-pyran-4-yl)ethynyl)-7-isopropoxyisoquinoline-6-carboxamide], the IC50 in assay [1] came out at 3.76 µM; in assay [2] it was 15400 nM; in assay [3], 20.7 nM; in assay [4], 10.2 µM.

As for `CC(C)Oc1cc2c(O[C@@H]3CCCN(C(=O)CC#N)C3)ncc(C#CC3(O)CCN(C(=O)OC(C)(C)C)CC3)c2cc1C(N)=O` [Compound I-92, tert-butyl (R)-4-((6-carbamoyl-1-((1-(2-cyanoacetyl)piperidin-3-yl)oxy)-7-isopropoxyisoquinolin-4-yl)ethynyl)-4-hydroxypiperidine-1-carboxylate], the IC50 in assay [1] came out at 3.7 µM; in assay [2], 13900 nM; in assay [3] it was 142 nM; in assay [4], 4.92 µM.
